Measurements reported in PubChem BioAssay (NCI).
Values joined by “and” are separate entries in the source; they are usually repeats but may differ in a detail not shown here. Equal values may be shown once.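 Where inhibition never reached the appropriate level, the endpoint shown equals the highest concentration tested. Otherwise, values were interpolated linearly from a five-concentration, 48-hour dose response in 96-well plates. GI50 marks 50% less growth. TGI is the concentration that stops growth completely.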

How the values were obtained:
Assay in all cases: NCI-60 cell line screen, 48 h
[1] = test system: COLO 205 colon
[2] = test system: KM12 colon
[3] = test system: OVCAR-4 ovarian
[4] = test system: OVCAR-8 ovarian
[5] = test system: SF-295 CNS
[6] = test system: SK-OV-3 ovarian
[7] = test system: SN12C renal
[8] = test system: SNB-19 CNS
[9] = test system: SR leukemia
[10] = test system: K-562 leukemia

SMILES | TGI [1] [µM] | TGI [2] | TGI [3] | TGI [4] [µM] | TGI [5] [µM] | TGI [6] | TGI [7] [µM] | TGI [8] | TGI [9] | TGI [10] [µM] | GI50 [7] [µM] | GI50 [1] [µM] | GI50 [2] [µM] | GI50 [3] [µM] | GI50 [4] [µM] | GI50 [5] [µM] | GI50 [6] [µM] | GI50 [8] [µM] | GI50 [9]
CC(C)C12CCC3(CCC4C(C)(C(=O)O)CCCC4(C)C3C1)C(CN)C2 (stereo not drawn) | 33.2 | > 100 µM | > 100 µM | > 100 | > 100 | > 100 µM | 43.3 | > 100 µM | 60.1 µM |  |  |  |  |  |  |  |  |  | 
CN(C)c1ccc(/C=C2\Cc3ccccc3C2=O)cc1Br | > 100 | > 100 µM | > 100 µM | > 100 | > 100 | > 100 µM | > 100 | > 100 µM |  | > 100 |  |  |  |  |  |  |  |  | 
O=c1cccccc1[O-].O=c1cccccc1[O-].O=c1cccccc1[O-].[Dy+3] |  | > 100 µM | > 100 µM | 97.6 | > 100 | 98.3 µM | > 100 | > 100 µM |  | > 100 | 17.7 |  |  |  |  |  |  |  | 
CC(=O)Nc1ccc(C(=O)NN2C(=O)CSC2c2ccccc2)cc1 (stereo not drawn) | > 100 | > 100 µM | > 100 µM | > 100 | > 100 | > 100 µM | > 100 | > 100 µM |  | > 100 |  |  |  |  |  |  |  |  | 
CC(C)c1nc(Cl)c(Cl)c(Cl)n1 | 11.9 | 23.3 µM | 39.1 µM | 8.07 | 29 | 37.9 µM | 16.9 | 36.2 µM |  | > 100 |  |  |  |  |  |  |  |  | 
COc1cc2c(cc1OCCCN1CCN(CCCn3c4ccccc4c4ccccc43)CC1)N=C[C@@H]1CCCN1C2=O | 0.235 | 0.578 µM | 0.357 µM | 1.55 | 0.235 | 1.27 µM | 1.51 | 1.17 µM | 12.4 µM |  | 0.243 | 0.0749 | 0.157 | 0.0374 | 0.273 | < 0.0359 | 0.32 | 0.274 | 0.0206 µM
O=[N+]([O-])C1(CO)COC(CCc2ccccc2)OC1 (stereo not drawn) |  | > 100 µM | > 100 µM | > 100 | > 100 | > 100 µM | > 100 |  | > 100 µM | > 100 |  |  |  |  |  |  |  |  | 
Cc1ccc(S(=O)(=O)NCc2cccc([N+](=O)[O-])c2)cc1 | > 100 | > 100 µM | > 100 µM | > 100 | > 100 | > 100 µM | > 100 | > 100 µM | > 100 µM |  |  |  |  |  |  |  |  |  | 
NC1=NN(c2ccccc2)C(=O)C1/C(=N\NC(=O)c1cc2ccccc2cc1O)C(=O)Nc1ccc(Cl)cc1 (stereo not drawn) | 49.7 | > 100 µM | > 100 µM | > 100 | > 100 | > 100 µM | > 100 | > 100 µM |  | > 100 |  |  |  |  |  |  |  |  | 
O=C1C(=O)c2c(ccc3ccccc23)-c2ccccc21 | 6.55 | 2.99 µM | 2.5 µM | 7.98 | 4.6 | 5.06 µM | 3.31 | 7.97 µM | > 100 µM |  | 1.6 | 2.24 | 1.6 | 1.21 | 2.11 | 1.92 | 2.05 | 2.43 | 2.69 µM
O=[N+]([O-])c1cccc(C2=NOC3CCCC23)c1 (stereo not drawn) | > 100 | > 100 µM | > 100 µM | > 100 | > 100 | > 100 µM | > 100 | > 100 µM |  | > 100 |  |  |  |  |  |  |  |  | 
CCOC(=O)NC/C=C/CO | > 100 | > 100 µM | > 100 µM | > 100 |  | > 100 µM | > 100 | > 100 µM | > 100 µM | > 100 |  |  |  |  |  |  |  |  | 
Cc1cc2c(SCc3ccccc3Cl)nc(N)nc2nc1C | > 100 | > 100 µM | > 100 µM | > 100 | > 100 | > 100 µM | > 100 | > 100 µM | > 100 µM |  |  |  |  |  |  |  |  |  | 
Cc1cc(C2(c3cc(C)c(O)c4ncccc34)OC(=O)c3ccccc32)c2cccnc2c1O | 28.5 | > 100 µM | > 100 µM | > 100 | 21.3 | 21.9 µM | 12.1 |  |  | > 100 |  | 0.405 |  |  |  | 0.012 |  | 0.0365 | 
Nc1nc(N)c(-c2ccccc2)c(C(=O)Nc2nccs2)n1 | > 100 | > 100 µM | > 100 µM | > 100 | > 100 | > 100 µM | > 100 | > 100 µM |  | > 100 |  |  |  |  |  |  |  |  | 
O=C(O)C12C3C4C1C1C2C3C41I (stereo not drawn) | > 100 | > 100 µM | > 100 µM | > 100 | > 100 | > 100 µM | > 100 | > 100 µM |  | > 100 |  |  |  |  |  |  |  |  | 
CC1CC2C(=O)N(c3ccccc3)C(=O)C2c2[nH]c3ccccc3c21 (stereo not drawn) | > 100 | > 100 µM | > 100 µM | > 100 | > 100 | 36.7 µM | > 100 |  | > 100 µM | > 100 |  |  |  |  |  |  |  |  | 
CCNC(=O)O/N=C1/C=C2CC[C@@H]3C(CC[C@@]4(C)C3CC[C@@H]4OC(=O)NCC)[C@@]2(C)CC1 (stereo partly drawn) | 7.87 | 9.58 µM | 6.39 µM | 16.3 | 7.03 | 7.8 µM | 14.6 | 8.21 µM |  | 12.7 |  |  |  |  |  |  |  |  | 
Cc1c2cc[n+](C)cc2c(C)c2c1[nH]c1ccc(Oc3ccccc3)cc12 | 5.25 | 18.8 µM and > 100 µM | 36.5 µM and > 68.7 µM | > 100 |  | > 73.5 µM and 21.4 µM | > 100 | 0.887 µM and 4.09 µM | > 71.9 µM and 8.31 µM | > 24 |  |  |  |  |  |  |  | 0.23 | 4.39 µM and 1.87 µM
O=C1COc2cc3c(cc2N1)SCC(=O)N3 | > 100 | > 100 µM | > 100 µM | > 100 | > 100 | > 100 µM |  | > 100 µM | > 100 µM | > 100 |  |  |  |  |  |  |  |  | 
COc1cc(COC(=O)NC(Cc2cccs2)C(=O)O)c([N+](=O)[O-])cc1OC (stereo not drawn) | > 100 | > 100 µM |  | > 100 | > 100 | > 100 µM | > 100 | > 100 µM | > 100 µM | > 100 |  |  |  |  |  |  |  |  | 
CN1C/C(=C\c2ccco2)c2nc(N)nc(-c3ccco3)c2C1 | > 100 | > 100 µM |  | > 100 | > 100 | > 100 µM | > 100 | > 100 µM |  | > 100 |  |  |  |  |  |  |  |  | 
